This note sets out measurements from patent US10370727B2, “Point mutations in TRK inhibitor-resistant cancer and methods relating to the same” (Loxo Oncology, Inc., priority 2015, dated 2019).

Each structure is given as a SMILES string.

Common to all, as to test: Trk enzyme assay ([33P] incorporation into poly-EAY)
Common to all, as to type: biochemical

The target of one assay is TrkA WT (Homo sapiens, UniProt P04629). The following applies: wild-type TrkA enzyme; 22° C., 60 minutes.
A further assay concerns the target TrkA V573M (Homo sapiens, UniProt P04629, V573M). The following applies: mutant TrkA V573M enzyme; 22° C., 60 minutes.
The target in the next assay is TrkA F589L (Homo sapiens, UniProt P04629, F589L). The following applies: mutant TrkA F589L enzyme; 22° C., 60 minutes.
For another assay, the target named is TrkA G595R (Homo sapiens, UniProt P04629, G595R). The following applies: mutant TrkA G595R enzyme; 22° C., 60 minutes.
In another assay the target is TrkA G667C (Homo sapiens, UniProt P04629, G667C). To be noted: mutant TrkA G667C enzyme; 22° C., 60 minutes.
The target in the next assay is TrkA G667S (Homo sapiens, UniProt P04629, G667S). The following applies: mutant TrkA G667S enzyme; 22° C., 60 minutes.
A further assay addresses TrkB WT (Homo sapiens, UniProt Q16620). To be noted: wild-type TrkB enzyme; 22° C., 60 minutes.
In the next assay the target is TrkB G623R (Homo sapiens, UniProt Q16620, G623R). To be noted: mutant TrkB G623R enzyme; 22° C., 60 minutes.
A further assay has as its target TrkC WT (Homo sapiens, UniProt Q16288, S70N). The following applies: wild-type TrkC enzyme; 22° C., 60 minutes.
The target in the next assay is TrkC G623R (Homo sapiens, UniProt Q16288, G623R/S70N). The following applies: mutant TrkC G623R enzyme; 22° C., 60 minutes.
The target in the next assay is TrkC F617L (Homo sapiens, UniProt Q16288, F617L/S70N). The following applies: mutant TrkC F617L enzyme; 22° C., 60 minutes.
Chain of TrkC F617L (Q16288 32-839 S70N/F617L): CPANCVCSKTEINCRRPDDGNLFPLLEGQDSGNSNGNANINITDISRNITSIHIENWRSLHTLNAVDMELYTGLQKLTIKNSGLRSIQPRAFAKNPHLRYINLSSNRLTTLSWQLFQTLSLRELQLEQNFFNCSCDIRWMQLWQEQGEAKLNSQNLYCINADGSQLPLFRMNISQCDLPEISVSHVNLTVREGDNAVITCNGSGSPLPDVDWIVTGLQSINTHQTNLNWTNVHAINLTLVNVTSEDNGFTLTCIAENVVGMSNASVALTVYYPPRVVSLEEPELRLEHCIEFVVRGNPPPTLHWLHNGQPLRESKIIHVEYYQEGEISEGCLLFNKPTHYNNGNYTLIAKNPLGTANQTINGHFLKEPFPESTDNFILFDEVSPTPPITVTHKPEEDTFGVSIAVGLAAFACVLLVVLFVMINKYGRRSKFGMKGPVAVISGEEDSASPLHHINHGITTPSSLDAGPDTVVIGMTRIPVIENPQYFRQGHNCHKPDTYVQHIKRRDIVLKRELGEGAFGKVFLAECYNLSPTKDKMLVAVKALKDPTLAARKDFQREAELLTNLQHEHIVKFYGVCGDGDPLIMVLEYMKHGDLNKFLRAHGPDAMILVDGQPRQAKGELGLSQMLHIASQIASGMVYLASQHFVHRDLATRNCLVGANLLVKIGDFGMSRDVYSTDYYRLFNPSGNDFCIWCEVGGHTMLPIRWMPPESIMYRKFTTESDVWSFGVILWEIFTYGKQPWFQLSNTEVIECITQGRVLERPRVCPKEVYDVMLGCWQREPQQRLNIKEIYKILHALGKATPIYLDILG

Chain of TrkC WT (Q16288 32-839 S70N): as the sequence (Q16288 32-839 S70N/F617L) above, with L586F counted along it
Chain of TrkA G667C (P04629 33-796 G667C): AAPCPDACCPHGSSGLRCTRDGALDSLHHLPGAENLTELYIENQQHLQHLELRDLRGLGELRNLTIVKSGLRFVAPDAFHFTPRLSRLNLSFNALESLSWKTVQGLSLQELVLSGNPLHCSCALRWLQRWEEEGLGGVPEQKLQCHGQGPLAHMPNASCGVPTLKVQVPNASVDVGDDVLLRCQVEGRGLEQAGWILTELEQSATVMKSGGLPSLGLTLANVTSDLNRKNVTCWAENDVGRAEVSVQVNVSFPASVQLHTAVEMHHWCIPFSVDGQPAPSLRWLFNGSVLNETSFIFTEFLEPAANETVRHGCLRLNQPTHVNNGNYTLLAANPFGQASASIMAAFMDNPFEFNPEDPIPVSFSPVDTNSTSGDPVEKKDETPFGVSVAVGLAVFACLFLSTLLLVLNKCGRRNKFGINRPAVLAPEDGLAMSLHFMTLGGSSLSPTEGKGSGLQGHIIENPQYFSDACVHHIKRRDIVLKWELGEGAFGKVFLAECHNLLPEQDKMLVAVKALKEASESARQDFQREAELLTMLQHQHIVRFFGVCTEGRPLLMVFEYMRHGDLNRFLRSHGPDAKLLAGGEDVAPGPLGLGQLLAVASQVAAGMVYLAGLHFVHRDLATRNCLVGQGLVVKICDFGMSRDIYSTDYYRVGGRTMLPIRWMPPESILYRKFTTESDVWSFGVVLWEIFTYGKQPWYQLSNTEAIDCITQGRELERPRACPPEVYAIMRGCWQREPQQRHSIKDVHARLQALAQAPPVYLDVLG
Chain of TrkB WT (Q16620 32-822): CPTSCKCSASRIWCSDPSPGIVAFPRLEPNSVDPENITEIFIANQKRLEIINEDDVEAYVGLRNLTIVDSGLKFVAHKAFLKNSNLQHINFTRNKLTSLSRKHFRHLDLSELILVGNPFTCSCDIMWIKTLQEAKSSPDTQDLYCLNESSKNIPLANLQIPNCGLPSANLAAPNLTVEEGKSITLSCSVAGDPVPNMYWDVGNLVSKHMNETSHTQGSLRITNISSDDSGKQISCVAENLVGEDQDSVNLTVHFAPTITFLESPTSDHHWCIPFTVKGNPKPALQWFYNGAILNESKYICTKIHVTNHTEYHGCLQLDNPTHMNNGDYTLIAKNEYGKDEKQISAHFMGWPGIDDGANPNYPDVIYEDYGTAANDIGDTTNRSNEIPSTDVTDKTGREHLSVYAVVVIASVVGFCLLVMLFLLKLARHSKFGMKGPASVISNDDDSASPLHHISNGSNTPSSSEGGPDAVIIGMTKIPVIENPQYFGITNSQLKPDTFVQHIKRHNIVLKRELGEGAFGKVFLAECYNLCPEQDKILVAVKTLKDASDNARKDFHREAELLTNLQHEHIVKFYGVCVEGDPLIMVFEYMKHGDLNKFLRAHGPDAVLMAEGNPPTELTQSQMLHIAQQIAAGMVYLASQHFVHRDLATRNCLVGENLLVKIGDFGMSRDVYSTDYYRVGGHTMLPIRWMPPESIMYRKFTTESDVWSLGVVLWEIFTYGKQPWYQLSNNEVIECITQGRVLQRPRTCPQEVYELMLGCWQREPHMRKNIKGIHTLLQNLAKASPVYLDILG
Chain of TrkA G595R (P04629 33-796 G595R): as the sequence (P04629 33-796 G667C) above, with G563R, C635G counted along it
Chain of TrkA WT (P04629 33-796): as the sequence (P04629 33-796 G667C) above, with C635G counted along it
Chain of TrkC G623R (Q16288 32-839 S70N/G623R): as the sequence (Q16288 32-839 S70N/F617L) above, with L586F, G592R counted along it
Chain of TrkB G623R (Q16620 32-822 G623R): as the sequence (Q16620 32-822) above, with G592R counted along it
Chain of TrkA G667S (P04629 33-796 G667S): as the sequence (P04629 33-796 G667C) above, with C635S counted along it
Chain of TrkA V573M (P04629 33-796 V573M): as the sequence (P04629 33-796 G667C) above, with V541M, C635G counted along it
Chain of TrkA F589L (P04629 33-796 F589L): as the sequence (P04629 33-796 G667C) above, with F557L, C635G counted along it

In general, IC50 refers to the concentration at which inhibition is half-maximal. The low end stands for greater potency in that assay, the high end for weaker potency in that assay. As for `CONC(=O)c1cnn2ccc(N3CCC[C@@H]3c3cc(F)cnc3OC)nc12` [Compound 14, (R)-5-(2-(5-fluoro-2-methoxypyridin-3-yl)pyrrolidin-1-yl)-N-methoxy-pyrazolo[1,5-a]pyrimidine-3-carboxamide], the half-maximal inhibitory concentration (IC50) on TrkA WT was less than 0.5 nM; on TrkA V573M it was 12.1 nM; at TrkA F589L, 14.8 nM; at TrkA G595R it was 1.5 nM; at TrkA G667C, 9 nM; against TrkA G667S it was 2.8 nM. In addition, the IC50 against TrkB WT is 4.4 nM; against TrkB G623R it was 1.5 nM; at TrkC WT it was less than 2.5 nM; against TrkC G623R it was 2.7 nM; at TrkC F617L, 12.4 nM.
`CC1(O)CN(C(=O)Nc2cnn3ccc(N4CCC[C@@H]4c4cc(F)ccc4Cl)nc23)C1` [Compound 10, (R)-N-(5-(2-(2-chloro-5-fluorophenyl)pyrrolidin-1-yl)pyrazolo[1,5-a]pyrimidin-3-yl)-3-hydroxy-3-methylazetidine-1-carboxamide]: the IC50 is 0.9 nM at TrkA WT; 105 nM at TrkA V573M; 103 nM against TrkA F589L; 107 nM against TrkA G595R; 89.2 nM against TrkA G667C; 27 nM on TrkA G667S. The half-maximal inhibitory concentration (IC50) is 6.5 nM against TrkB WT; 150 nM against TrkB G623R; less than 2.5 nM on TrkC WT; 101 nM against TrkC G623R; 80.1 nM against TrkC F617L.
Regarding `O=C1NCCCOc2ncc(F)cc2[C@H]2CCCN2c2ccn3ncc1c3n2` [Compound 16, (6R)-9-fluoro-13-oxa-2,11,17,21,22,25-hexaazapentacyclo[17.5.2.0^2,6.0^7,12.0^22,26]-hexacosa-1(25),7,9,11,19(26),20,23-heptaen-18-one], the IC50 at TrkA WT was less than 0.5 nM; on TrkA V573M it was less than 5 nM; at TrkA F589L, less than 1 nM; on TrkA G595R, 0.9 nM; against TrkA G667C, 1.1 nM; on TrkA G667S it was 0.4 nM. Further, the IC50 at TrkB WT is 2.9 nM; against TrkB G623R, 0.9 nM; against TrkC WT, less than 2.5 nM; on TrkC G623R, 1.3 nM; at TrkC F617L, less than 5 nM.
With `O=C(Nc1cnn2ccc(N3CCC[C@@H]3c3cc(F)ccc3F)nc12)N1CC(O)C1` [Compound 5, (R)-N-(5-(2-(2,5-difluorophenyl)pyrrolidin-1-yl)pyrazolo[1,5-a]pyrimidin-3-yl)-3-hydroxyazetidine-1-carboxamide], the concentration for half-maximal inhibition (IC50) at TrkA WT turned out to be 1.1 nM; against TrkA V573M, 152 nM; against TrkA F589L, 232 nM; on TrkA G595R, 84.6 nM; at TrkA G667C it was 141 nM; at TrkA G667S, 38.5 nM. Also, the IC50 was 5.9 nM on TrkB WT; 132 nM on TrkB G623R; less than 2.5 nM against TrkC WT; 95 nM against TrkC G623R; 154 nM against TrkC F617L.
Take `O=C1NCCCOc2ccc(F)cc2[C@H]2CCCN2c2ccn3ncc1c3n2` [Compound 19, (6R)-9-fluoro-13-oxa-2,17,21,22,25-pentaazapentacyclo[17.5.2.0^2,6.0^7,12.0^22,26] hexacosa-1(25),7,9,11,19(26),20,23-heptaen-18-one]: the IC50 at TrkA WT was 0.5 nM; at TrkA V573M it was less than 5 nM; on TrkA F589L it was 1.1 nM; against TrkA G595R, 1.2 nM; at TrkA G667C, 0.9 nM; on TrkA G667S, 0.3 nM. Further, the 50% inhibitory concentration (IC50) against TrkB WT is 4.4 nM; against TrkB G623R it was 1 nM; against TrkC WT, less than 2.5 nM; on TrkC G623R, 1.8 nM; against TrkC F617L, 5.1 nM.
Take `NC(=O)c1cnn2ccc(N3CCC[C@@H]3c3cc(F)ccc3F)nc12` [Compound 12, (R)-5-(2-(2,5-difluorophenyl)pyrrolidin-1-yl)pyrazolo[1,5-a]pyrimidine-3-carboxamide]: the IC50 at TrkA WT is less than 0.5 nM; against TrkA V573M, 14.9 nM; on TrkA F589L, 21 nM; against TrkA G595R, 1 nM; against TrkA G667C it was 15.6 nM; against TrkA G667S, 3.6 nM. Further, the IC50 was 3.3 nM against TrkB WT; 1.3 nM against TrkB G623R; less than 2.5 nM at TrkC WT; 1.6 nM at TrkC G623R; 9.9 nM on TrkC F617L.
Take `CC(=O)N1CCOc2ccc(F)cc2[C@H]2CCCN2c2ccn3ncc(c3n2)C1` [Compound 21, 1-[(6R)-9-fluoro-13-oxa-2,16,20,21,24-pentaazapentacyclo[16.5.2.0^2,6.0^7,12.0^21,25]pentacosa-1(24),7,9,11,18(25),19,22-heptaen-16-yl]ethan-1-one]: the IC50 at TrkA WT amounted to 0.6 nM; against TrkA V573M, 29.1 nM; against TrkA F589L it was 66.3 nM; against TrkA G595R, 7.3 nM; against TrkA G667C, 22.2 nM; at TrkA G667S, 8.4 nM. Besides, the IC50 at TrkB WT is 5.6 nM; at TrkB G623R, 12.4 nM; on TrkC WT, less than 2.5 nM; against TrkC G623R, 7.8 nM; against TrkC F617L, 48.5 nM.
`O=C1OCCOc2ncc(F)cc2[C@H]2CCCN2c2ccn3ncc1c3n2` [Compound 22, (6R)-9-fluoro-13,16-dioxa-2,11,20,21,24-pentaazapentacyclo[16.5.2.0^2,6.0^7,12.0^21,25]-pentacosa-1(24),7,9,11,18(25),19,22-heptaen-17-one]: the IC50 at TrkA WT is 0.5 nM; at TrkA V573M it was less than 5 nM; at TrkA F589L it was 8.4 nM; against TrkA G595R it was 1.5 nM; against TrkA G667C, 5.7 nM; on TrkA G667S, 0.9 nM. Besides, the IC50 against TrkB WT was 2.9 nM; on TrkB G623R it was 1.3 nM; at TrkC WT it was less than 2.5 nM; against TrkC G623R, 1.5 nM; at TrkC F617L, 5.4 nM.
With `CNC(=O)Nc1cnc2ccc(N3CCC[C@@H]3c3cc(F)ccc3F)nn12` [Compound 4, (R)-1-(6-(2-(2,5-difluorophenyl)pyrrolidin-1-yl)imidazo[1,2-b]pyridazin-3-yl)-3-methylurea], the IC50 against TrkB WT came out at 10.6 nM; at TrkB G623R, 132 nM; against TrkC WT it was 3.1 nM; at TrkC G623R, 70.8 nM; at TrkC F617L it was 177 nM.
In the same order, the values of `O=C(Nc1cnc2ccc(N3CCC[C@@H]3c3cc(F)ccc3F)nn12)N1CC(O)C1` [Compound 1, (R)-N-(6-(2-(2,5-difluorophenyl)pyrrolidin-1-yl)imidazo[1,2-b]pyridazin-3-yl)-3-hydroxyazetidine-1-carboxamide] are 5.7 nM, 59.7 nM, less than 2.5 nM, 29.3 nM and 58 nM.
In the same order, the values of `CN(CCO)C(=O)Nc1cnc2ccc(N3CCC[C@@H]3c3cc(F)ccc3F)nn12` [Compound 6, (R)-3-(6-(2-(2,5-difluorophenyl)pyrrolidin-1-yl)imidazo[1,2-b]pyridazin-3-yl)-1-(2-hydroxyethyl)-1-methylurea] are 5 nM, 27.5 nM, less than 2.5 nM, 24.1 nM and 49.7 nM.
In the same order, the values of `NC(=O)Nc1cnc2ccc(N3CCC[C@@H]3c3cc(F)ccc3F)nn12` [Compound 3, (R)-1-(6-(2-(2,5-difluorophenyl)pyrrolidin-1-yl)imidazo[1,2-b]pyridazin-3-yl)urea] are 11.9 nM, 90 nM, 4.5 nM, 55.7 nM and 273 nM.
As to `CN(C)C(=O)Nc1cnc2ccc(N3CCC[C@@H]3c3cc(F)ccc3F)nn12` [Compound 2, (R)-3-(6-(2-(2,5-difluorophenyl)pyrrolidin-1-yl)imidazo[1,2-b]pyridazin-3-yl)-1,1-dimethylurea], the IC50 at TrkB WT is 4.5 nM; on TrkB G623R, 34.1 nM; at TrkC WT, less than 2.5 nM; on TrkC G623R, 23.1 nM; at TrkC F617L it was 37.6 nM.
In the same order, the values of `CC1(O)CN(C(=O)Nc2cnc3ccc(N4CCC[C@@H]4c4cc(F)ccc4F)nn23)C1` [Compound 7, (R)-N-(6-(2-(2,5-difluorophenyl)pyrrolidin-1-yl)imidazo[1,2-b]pyridazin-3-yl)-3-hydroxy-3-methylazetidine-1-carboxamide] are 7 nM, 47.9 nM, less than 2.5 nM, 22.7 nM and 42.5 nM.
